Earlier results as cited in patent US5484728A (priority 1994, dated 1996).

CCOP(=S)(OCC)Oc1cc(C)nc(C(C)C)n1 [diazinon]
half-life of diazinon in soil without enzyme present: 226 h
